This is an account of results in ChEMBL document CHEMBL1144413 (J Med Chem, 2005).

Each structure is given as a SMILES string.

Series [1] addresses T1, Aldo-keto reductase family 1 member A1 (Homo sapiens, UniProt P14550).
T1 sequence (P14550 whole entry): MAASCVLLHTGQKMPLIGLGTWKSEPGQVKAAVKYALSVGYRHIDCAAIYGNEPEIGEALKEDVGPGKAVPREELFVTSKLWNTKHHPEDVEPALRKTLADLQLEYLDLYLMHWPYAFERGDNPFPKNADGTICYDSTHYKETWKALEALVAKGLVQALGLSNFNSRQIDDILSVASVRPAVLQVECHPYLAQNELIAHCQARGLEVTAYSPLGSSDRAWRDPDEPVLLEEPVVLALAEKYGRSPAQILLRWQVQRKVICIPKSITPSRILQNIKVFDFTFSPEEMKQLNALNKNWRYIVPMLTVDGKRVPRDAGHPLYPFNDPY
Description: In vitro inhibition of recombinant human aldehyde reductase.

The target of series [2] is Aldo-keto reductase family 1 member B1 (Homo sapiens, UniProt P15121). Description: In vitro inhibition of recombinant human aldose reductase expressed in Escherichia coli.
For series [3], the system named is Rattus norvegicus. Description: Myo-inositol accumulation in 3 month diabetic rats (streptozotocin treated) done for 30 minutes at 22 degree C in dark by using sorbitol dehydrogenase at 5 mg/kg/day. In kind it is functional.
A short description of series [4]: Area under the concentration time curve 0-24 hr was determined in fasted rats after p.o. doses of 6 mg/kg/day. In kind it is ADME, organism-based. Set-up: time < 24 hr, dose 6 mg/kg/day, route oral. Particulars: rat, in vivo, po.
The nature of series [5]: Half-life was determined in fasted rats after i.v. doses of 10 mg/kg/day. It counts as ADME, organism-based. Also noted: route intravenous. Particulars: rat, in vivo, iv.
Series [6] is described as follows: Maximum plasma concentration was determined in nonfasted rats after p.o. doses of 6 mg/kg/day. In kind it is ADME, organism-based. Also noted: dose 6 mg/kg/day, route oral. Conditions: rat, in vivo, po.
For series [7], the species on record is Rattus norvegicus.
Description: Ability to lower elevated glucose levels in diabetic rats (streptozotocin treated) model at 1.4 mg/kg/day
The species named for series [8] is Rattus norvegicus. Particulars: Plasma.
Description: Ability to lower elevated plasma triglyceride levels in diabetic rats (streptozotocin treated) model at 0.48 mg/kg/day
Series [9] in a line: Total body clearance was determined in nonfasted rats after p.o. doses of 6 mg/kg/day. In kind it is ADME, organism-based. Set-up: route oral. Particulars: rat, in vivo, po, read-out: ClT.
In series [10] the test system is Rattus norvegicus. Description: Inhibition of sciatic nerve sorbitol accumulation in diabetic rats (streptozotocin treated) done for 30 minutes at 22 degree C in dark by using sorbitol dehydrogenase at 10 mg/kg/day. Particulars: 0.5 h. In kind it is functional.
The nature of series [11]: Area under the concentration time curve 0-24 hr was determined in fasted rats after i.v. doses of 10 mg/kg/day. In kind it is ADME, organism-based. Set-up: time < 24 hr, dose 10 mg/kg/day, route intravenous. Particulars: rat, in vivo, iv.
Series [12] can be described thus: Maximum plasma concentration was determined in fasted rats after p.o. doses of 6 mg/kg/day. In kind it is ADME, organism-based. Also noted: dose 6 mg/kg/day, route oral. Particulars: rat, in vivo, po.
A short description of series [13]: Maximum plasma concentration was determined in fasted rats after i.v. doses of 10 mg/kg/day. In kind it is ADME, organism-based. Also noted: dose 10 mg/kg/day, route intravenous. Particulars: rat, in vivo, iv.
The species entered for series [14] is Rattus norvegicus. Particulars: Plasma. The source holds these as a separate data set.
Description: Ability to lower elevated plasma triglyceride levels in diabetic rats (streptozotocin treated) model at 1.9 mg/kg/day
The species named for series [15] is Rattus norvegicus. This is another data set of the same source.
Description: Ability to lower elevated glucose levels in diabetic rats (streptozotocin treated) model at 0.95 mg/kg/day
Series [16] can be described thus: Time require to reach maximum plasma concentration was determined in fasted rats after p.o. doses of 6 mg/kg/day. In kind it is ADME, organism-based. Set-up: route oral. Particulars: rat, po.
The species entered for series [17] is Rattus norvegicus. The source holds these as a separate data set.
Description: Ability to lower elevated glucose levels in diabetic rats (streptozotocin treated) model at 1.9 mg/kg/day
The subject of series [18] is Rattus norvegicus. Description: Fructose accumulation in 3 month diabetic rats (streptozotocin treated) done for 30 minutes at 22 degree C in dark by using sorbitol dehydrogenase at 5 mg/kg/day. It counts as functional.
Series [19] is filed under the species Rattus norvegicus. Particulars: Plasma. This is another data set of the same source.
Description: Ability to lower elevated plasma triglyceride levels in diabetic rats (streptozotocin treated) model at 0.95 mg/kg/day
Series [20] is described as follows: Area under the concentration time curve 0-24 h was determined in nonfasted rats after p.o. doses of 6 mg/kg/day. Conditions: rat, in vivo, po. It counts as ADME, organism-based. Also noted: dose 6 mg/kg/day, time < 24 hr, route oral.
Series [21] concerns Rattus norvegicus. Description: Improvement in sorbitol accumulation in 3 month diabetic rats (streptozotocin treated) done for 30 minutes at 22 degree C in dark by using sorbitol dehydrogenase at 5 mg/kg/day. In kind it is functional.
For series [22], the species on record is Rattus norvegicus. Conditions: Plasma. The source holds these as a separate data set.
Description: Ability to lower elevated plasma triglyceride levels in diabetic rats (streptozotocin treated) model at 4.8 mg/kg/day
Series [23] relates to Rattus norvegicus. Description: Improvement in fructose accumulation in 3 month diabetic rats (streptozotocin treated) done for 30 minutes at 22 degree C in dark by using sorbitol dehydrogenase at 5 mg/kg/day. It counts as functional.
Series [24] is filed under the species Rattus norvegicus. This is another data set of the same source.
Description: Sorbitol accumulation in 3 month diabetic rats (streptozotocin treated) done for 30 minutes at 22 degree C in dark by using sorbitol dehydrogenase at 5 mg/kg/day; BQL is Below quantifiable level
Series [25] in a line: Half-life was determined in fasted rats after p.o. doses of 6 mg/kg/day. Also noted: route oral. Particulars: rat, in vivo, po. In kind it is ADME, organism-based.
Series [26] relates to Rattus norvegicus. Description: Improvement in myo-inositol accumulation in 3 month diabetic rats (streptozotocin treated) done for 30 minutes at 22 degree C in dark by using sorbitol dehydrogenase at 5 mg/kg/day. In kind it is functional.
The species entered for series [27] is Rattus norvegicus. The source holds these as a separate data set.
Description: Ability to lower elevated glucose levels in diabetic rats (streptozotocin treated) model at 4.8 mg/kg/day
The nature of series [28]: Half-life was determined in nonfasted rats after p.o. doses of 6 mg/kg/day. In kind it is ADME, organism-based. Set-up: route oral. Conditions: rat, in vivo, po.
A short description of series [29]: Time require to reach maximum plasma concentration was determined in fasted rats after i.v. doses of 10 mg/kg/day. Particulars: rat, iv. In kind it is ADME, organism-based. Also noted: route intravenous.
The nature of series [30]: Time require to reach maximum plasma concentration was determined in nonfasted rats after p.o. doses of 6 mg/kg/day. Set-up: route oral. Conditions: rat, po. It counts as ADME, organism-based.
Series [31] concerns Rattus norvegicus. Description: Inhibition of sorbitol accumulation in lens of diabetic rats (streptozotocin treated) done for 30 minutes at 22 degree C in dark by using sorbitol dehydrogenase at 10 mg/kg/day. In kind it is functional. Conditions: Lens of camera-type eye, 0.5 h.
Series [32] is described as follows: Total body clearance was determined in fasted rats after p.o. doses of 6 mg/kg/day. It counts as ADME, organism-based. Also noted: route oral. Conditions: rat, in vivo, po, read-out: ClT.
The species named for series [33] is Rattus norvegicus. Particulars: Plasma. The source holds these as a separate data set.
Description: Ability to lower elevated plasma triglyceride levels in diabetic rats (streptozotocin treated) model at 1.4 mg/kg/day
A short description of series [34]: Total body clearance was determined in fasted rats after i.v. doses of 10 mg/kg/day. In kind it is ADME, organism-based. Set-up: route intravenous. Conditions: rat, in vivo, iv, read-out: ClT.
The species entered for series [35] is Rattus norvegicus. The source holds these as a separate data set.
Description: Ability to lower elevated glucose levels in diabetic rats (streptozotocin treated) model at 0.48 mg/kg/day
Series [36] can be described thus: Volume of distribution was determined in fasted rats after i.v. doses of 10 mg/kg/day. Particulars: rat, in vivo, iv. Also noted: route intravenous. It counts as ADME, organism-based.

What is called IC50 is the concentration needed to halve the response being measured. Consider `O=C(O)Cn1cc(Cc2nc3cc(C(F)(F)F)ccc3s2)c2ccc(Br)cc21`, for which, in series [1], the IC50 worked out at 3400 nM.

Take `O=C(O)Cn1cc(Cc2nc3cc(F)c(F)cc3s2)c2ccccc21`: the IC50 in [1] worked out at 13000 nM; in [2], 560 nM.

In the case of `O=C(O)Cn1cc(Cc2nc3ccc(Cl)cc3s2)c2ccccc21`, the IC50 in series [1] was determined as 2100 nM.

With `COc1ccc2c(c1)c(Cc1nc3c(F)c(F)cc(F)c3s1)cn2CC(=O)O`, the IC50 in [2] came to 8 nM.

Consider `O=C(O)Cn1cc(Cc2nc3c(F)c(F)cc(F)c3s2)c2cc(Br)ccc21`, for which the IC50 in series [1] turned out to be 4700 nM.

Turning to `Cc1ccc2c(c1)c(Cc1nc3cc(C(F)(F)F)ccc3s1)cn2CC(=O)O`, the IC50 turned out to be 10200 nM in series [1] and 100 nM in series [2].

As to `O=C(O)Cn1cc(Cc2nc3c(F)cc(F)cc3s2)c2ccccc21`, the results for the IC50 in series [1] and in [2] were 5100 nM and 690 nM, respectively.

For the molecule `O=C(O)Cn1cc(Cc2nc3c(F)c(F)cc(F)c3s2)c2ccc(N3CCOCC3)cc21`, in series [1], the IC50 stood at 44000 nM.

For the molecule `Cc1ccc2c(Cc3nc4c(F)c(F)cc(F)c4s3)cn(CC(=O)O)c2c1`, the IC50 in series [2] is 10 nM.

For the molecule `O=C(O)Cn1cc(CCc2nc3c(F)c(F)cc(F)c3s2)c2ccccc21`, the IC50 in series [1] is 11000 nM; in series [2], 8 nM.

Consider `CC(C(=O)O)n1cc(Cc2nc3c(F)c(F)cc(F)c3s2)c2ccccc21` (stereo not drawn), for which the IC50 in [2] is 163 nM.

Consider `O=C(O)Cn1cc(C(=O)c2nc3c(F)c(F)cc(F)c3s2)c2ccccc21`, for which the IC50 in [2] was determined as 1600 nM.

Regarding `O=C(O)Cn1cc(Cc2nc3cc(F)ccc3s2)c2ccccc21`, the IC50 in series [1] came out at 6400 nM.

In the case of `O=C(O)Cn1cc(Cc2nc3ccc(F)cc3s2)c2ccccc21`, the IC50 in series [2] was 1000 nM.

As for `O=C(O)Cn1cc(Cc2nc3c(F)c(F)cc(F)c3s2)c2ccc(-c3ccccc3)cc21`, the half-maximal inhibitory concentration (IC50) in series [1] came to 6100 nM.

With `O=C(O)Cn1cc(Cc2nc3cccc(F)c3s2)c2ccccc21`, the IC50 came out at 18000 nM in series [1] and 55 nM in series [2].

Consider `O=C(O)Cn1cc(Cc2nc3cc(C(F)(F)F)ccc3s2)c2cc(Cl)ccc21`, for which the IC50 came out at 4900 nM in [1] and 130 nM in series [2].

For `O=C(O)Cn1cc(Cc2nc3c(F)cccc3s2)c2ccccc21`, the IC50 in [1] turned out to be 11000 nM; in series [2], 34 nM.

In general, half-life refers to the time needed for the level to fall by half in the phase considered. A word on the inhibition in vivo: it is the change of the read-out against control, counted positive when it falls. Read a high inhibition in vivo as a response far below the control. For orientation: Tmax means the time at which the peak concentration occurs. For orientation: Vd means the apparent volume that relates the amount in the body to the concentration in plasma or blood. On to `O=C(O)Cn1cc(Cc2nc3c(F)c(F)cc(F)c3s2)c2ccccc21` [LIDORESTAT], for which the Accumulation in series [3] is 9.26 nM/mg of dry wt; in [18], 1.62 nM/mg of dry wt; in [21] it was 100%; in series [23] it was 100%; in series [24], “Below quantifiable level”; in series [26] it was 79%. Besides, the AUC in [4] stood at 43.5 ug equiv/h/mL; in [11], 97.1 ug equiv/h/mL; in series [20], 72.8 ug equiv/h/mL. Besides, the values for the half-life in [5], in series [25] and in series [28] were 5.04 h, 5.61 h and 5.18 h, respectively. Besides, the results for the Cmax in series [6], in series [12] and in series [13] were 6.09 µg equiv/mL, 4.18 ug equiv/mL and 24 ug equiv/mL, respectively. For the same molecule, the Level in [7] was 427 mg/dL; in series [8], 301 mg/dL; in series [14] it was 218 mg/dL; in series [15] it was 430 mg/dL; in series [17], 440 mg/dL; in series [19], 261 mg/dL. For the same molecule, the Level in series [22] worked out at 189 mg/dL; in series [27] it was 417 mg/dL; in series [33], 242 mg/dL; in series [35], 432 mg/dL. In addition, the CL/F stood at 1.37 mL/min/kg in series [9] and 2.24 mL/min/kg in series [32]. Also, the inhibition in vivo at 10 mg/kg/day in series [10] amounted to 100%; in [31], 77%. Further, the figures for the Tmax in [16], in series [29] and in series [30] were 3.5 h, 4.8 min and 5 h, respectively. For the same molecule, the clearance in [34] stood at 1.7 mL/min/kg. For the same molecule, the Vd in series [36] is 0.694 L/kg.

As for `COc1ccc2c(C(=S)N(C)CC(=O)O)cccc2c1C(F)(F)F` [TOLRESTAT], the inhibition in vivo at 10 mg/kg/day was determined as 27% in [10] and 7% in series [31].

Take `O=C(O)Cn1c(=O)n(Cc2ccc(Br)cc2F)c(=O)c2ccc(Cl)cc21` [ZENARESTAT]: the values for the IC50 in series [1] and in series [2] were 9900 nM and 8 nM, respectively. Further, the inhibition in vivo at 10 mg/kg/day came to 64% in series [10] and 2% in series [31].

Turning to `O=C(O)Cc1nn(Cc2nc3cc(C(F)(F)F)ccc3s2)c(=O)c2ccccc12` [ZOPOLRESTAT], the IC50 in [1] was found to be 38600 nM. Moreover, the figures for the inhibition in vivo at 10 mg/kg/day in [10] and in series [31] were 80% and 9%, respectively.
